Source: US20030095982A1, “Fraction of Cordyceps sinensis and method of isolation thereof” (priority 2001, published 2003)

Key:
[1] = system: ovalbumin (OA) induced bronchial hyperresponsiveness; assay: Pulmonary function test, OA sensitized and challenged BALBc mice; assay type: in vivo
Procedure: In the nonanesthetized condition, 24 hours after airway challenge by 3 mL 1% OA aerosol, pulmonary function testing (PET) was measured by WBP at baseline and after methacholine (Mch) inhalation challenge. Four hours after PET in a nonanesthetized condition, all animals were anesthetized with sodium pentobarbitone (50 mg/kg intraperitoneally). Jugular vein cannulation (PE-10 polyethylene tube filled with heaprin, 1000 iu/mL in normal saline) and tracheostomy were performed. The animals were put in a body box (anesthetized small animal body box, Buxco, USA) in a supine position. Gallamine triethiodide (4 mg/kg) was injected intravenously to induce paralysis and inhibit spontaneous breathing. A small animal ventilator set at a tidal volume 6 mL/kg and a respiratory rate of 120 times/minute was used to ventilate the animals by room air. All animals were stable without spontaneous breathing 5 minutes after gallamine was given. Pulmonary function tests, including flow volume loop, peak airway opening pressure (PaO), and gas flow to calculate total dynamic lung compliance, were examined at baseline. Thereafter, 25, 50, 75 and 100 μg/kg of acetylcholine were given intravenously at 30 minute intervals. Pulmonary function test were done 5 seconds after each dose of acetylcholine. Before each dose of acetylcholine the flow volume loop returned to baseline.
The PaO was measured by a Gould pressure transducer at the tracheostomy. PaO was defined as opening airway pressure during tidal breathing when a small animal ventilator was used (tidal volume 6 mL/kg, respiratory rate 120 times/minute). Respiratory flow was measured by a DP-45-14 differential pressure transducer.
For the maximal forced expiratory maneuver (MFEM), the lungs were inflated to total lung capacity (TLC, lung volume at PaO =35 cm H2O) 3 times; the inflation was regulated by a solenoid valve. At peak volume during the third inflation, the inflation valve was shut off and the other solenoid valve was used immediately for deflation. The deflation valve was connected to a 20 liter container with a pressure of −40 cm H2O (subatmospheric). The negative pressure produced maximal expiratory flow (Vmax). The changes in flow, volume and PaO were recorded by a 7P1, 7P10 preamplifier (Grass instrument Company, USA) from the body box and flow volume was stored in an oscilloscope (Hitachi Den Shi America Ltd, New York, USA). The parameters of the flow volume loop (FV loop), including peak flow (the maximal flow rate of the FV loop), MFEF75% (the flow rate at 75% TLC), MFEF50% (the flow rate at 50% TLC) and MFEF25% (the flow rate at 25% TLC) were recorded.
PD20MFEF50%Ach is the dose of acetylcholine required to produce a decrease in MFEF50% of 20% from baseline. PD20MFEF25%Ach is the dose required to produce a decrease in MFEF25% of 20% from baseline. PD50PaOAch is the dose required to produce an increase in PaO of 50% from baseline. PD50CdynAch is the dose required to produce a decrease in Cdyn of 50% from baseline. PD50RawAch is the dose required to produce an increase in Raw of 50% from baseline after acetylcholine was given.
TLC and residual volume (RV) were defined as the gas volume in the lungs at airway pressures of +30 cm H2O (TLC) and −10 cm H2O (RV) respectively. The lungs were deflated to RV by connecting one port of the respiratory valve to a 4-liter reservoir at −10 cm H2O; the valve was then turned, and the lungs were inflated from a syringe to TLC. The volume necessary to inflate the lungs from −10 to 30 cm H2O was read from the syringe and was recorded as the vital capacity (VC). A specific measurement sequence was used throughout the study. VC was determined three times and then TLC was measured three times each. The average valve of the three measurements was reported.
Lung volumes (such as TLC and FRC) were also measured using the gas (Neon) dilution principle. […]

[2] = system: ovalbumin (OA) induced bronchial hyperresponsiveness; assay: Bronchoalveolar lavage cell counts, OA model in BNR; assay type: in vivo, brown Norway rats (BNR)
Procedure: After completion of the pulmonary function tests, BAL was performed using 10 mL normal saline twice (total 20 mL) for BNR or guinea pig. The BAL fluid was collected into plastic flasks containig 1,500 units of heparin and then strained through 1 layer of surgical gauze and centrifuged at 500 g for 5 min. The cell pellet was washed 3 times with sterile saline solution and resuspended in RPMI-1640. A small portion was taken for evaluation of cell number and viability, as assessed by trypan blue exclusion.
Differential counts were obtained using a cytocentrifuge preparation (Cytospin; Shandon Southern Instruments, Sewickley, Pa.) stained with Liu's stain (modified May-Giemsa stain).

[3] = BALBc mice, baseline, 4 mg/Kg intraperitoneally 30 minutes before OA inhalation provocation, mean±SD
[4] = BAL fluid, 4 mg/Kg intraperitoneally 30 minutes before OA inhalation provocation

CC(C)[C@@H](C)C=C[C@@H](C)[C@H]1CC[C@H]2C3=C[C@@H](O)[C@@]4(O)C[C@@H](O)CC[C@]4(C)[C@H]3CC[C@]12C [F8, (24R)-ergosta-7,22-diene-3β, 5α, 6β,-triol]
percentage of baseline MFEF 50% TLC, Ach dose response ([1]; BALB/c mice, pretreated before OA inhalation provocation (group I) vs OA-treated (group II), Ach doses higher than 25 μg/kg): group II was significantly lower then group I
Cdyn (total dynamic lung compliance) [1, 3]: 0.42 ± 0.04 mL/cmH2O
FEV 0.1 [1, 3]: 1.26 ± 0.17 mL
MFEF 25% [1, 3]: 6.06 ± 1.59 mL/s
MFEF 50% [1, 3]: 14.58 ± 1.31 mL/s
MFEF 75% [1, 3]: 19.94 ± 2.53 mL/s
PaO (airway opening pressure at tidal breathing) [1, 3]: 3.8 ± 0.5 cmH2O
Peak flow [1, 3]: 22.64 ± 2.07 mL/s
TLC [1, 3]: 1.68 ± 0.25 mL
Vital capacity [1, 3]: 1.29 ± 0.11 mL
baseline flow volume loop parameters (MFEF 50%TLC, MFEF 25%TLC, Cdyn) versus group II ([1]; mice, treatment study (administered after OA challenge), p<0.05): lower in group II when compared with group I and III
Eosinophil Cell count [2, 4]: 4.26 ± 0.5 (×10^4)/mL
Eosinophil Percentage of total cell count (%) [2, 4]: 28.8 ± 4.5 %
Lymphocyte Cell count [2, 4]: 3.37 ± 0.51 (×10^4)/mL
Lymphocyte Percentage of total cell count (%) [2, 4]: 22.8 ± 4.5 %
Macrophage Cell count [2, 4]: 6.85 ± 0.64 (×10^4)/mL
Macrophage Percentage of total cell count (%) [2, 4]: 46.3 ± 5.5 %
Neutrophil Cell count [2, 4]: 0.31 ± 0.4 (×10^4)/mL
Neutrophil Percentage of total cell count (%) [2, 4]: 2.1 ± 0.5%
Total cell count [2, 4]: 14.8 ± 3.2 (×10^4)/mL
BAL total cell counts, eosinophils and lymphocytes versus group II ([2]; treatment study (administered after OA inhalation provocation)): Group II had higher total cell counts than the other 2 groups
